Test results taken from ChEMBL document CHEMBL5226375, “Synthesis and Comprehensive in Vivo Activity Profiling of Olean-12-en-28-ol, 3β-Pentacosanoate in Experimental Autoimmune Encephalomyelitis: A Natural Remyelinating and Anti-Inflammatory Agent” (J Nat Prod, 2023).
Each block holds one compound with its values, some of them ahead of it. Activity calls are given as the source filed them. No cut-off for these calls is given here.

How the values were obtained:
Mus musculus [1] = assay: Anti-inflammatory activity against MOG35-55-induced experimental autoimmune encephalomyelitis C57BL/6 mouse model assessed as fold change in GFAP gene expression in brain at 300 mg/kg/day, ig for 14 days starting from 12th day of immunization by RT-qPCR analysis relative to control; format: functional; details: time 14 day
[2] = Stability of the compound in THF/phosphate buffer at pH 7.4 incubated for 2 hrs under stirring conditions by 1H-NMR analysis; format: physicochemical; details: pH 7.4, 2 h
Mus musculus [3] = assay: (§1) Anti-inflammatory activity against MOG35-55-induced experimental autoimmune encephalomyelitis C57BL/6 mouse model assessed as reduction in EAE symptoms by measuring reduction in paralysis of hind limbs at 300 to 600 mg/kg/day, ig for 14 days starting from 12th day of immunization; format: functional, organism-based; details: dose 300-600 mg/kg/day, time 14.0 day
[4] = Toxicity in C57BL/6 mouse assessed as serum LDH activity at 600 mg/kg/day, ig for 14 days by colorimetric analysis (reference value: 5.96 +/-1.08 U/ml); format: organism-based; details: in vivo, po, 336 h, time 14 day
Mus musculus [5] = assay: Anti-inflammatory activity against MOG35-55-induced experimental autoimmune encephalomyelitis C57BL/6 mouse model assessed as fold change in HIF1A gene expression in brain at 300 mg/kg/day, ig for 14 days starting from 12th day of immunization by RT-qPCR analysis relative to control; format: functional; details: time 14 day
Mus musculus [6] = assay: Anti-inflammatory activity against MOG35-55-induced experimental autoimmune encephalomyelitis C57BL/6 mouse model assessed as reduction in TGB1 protein expression in brain at 300 to 600 mg/kg/day, ig for 14 days starting from 12th day of immunization by western blot analysis; format: functional, organism-based; details: dose 300-600 mg/kg/day, time 14.0 day
Mus musculus [7] = assay: Anti-inflammatory activity against MOG35-55-induced experimental autoimmune encephalomyelitis C57BL/6 mouse model assessed as reduction in serum monokines level by measuring reduction in IL-1B level at 600 mg/kg/day, ig for 14 days starting from 12th day of immunization by ELISA; format: functional, organism-based; details: time 14.0 day
Mus musculus [8] = assay: Anti-inflammatory activity against MOG35-55-induced experimental autoimmune encephalomyelitis C57BL/6 mouse model assessed as reduction in EAE symptoms by measuring neurological regeneration and behavioral impotence at 600 mg/kg/day, ig for 14 days starting from 12th day of immunization; format: functional, organism-based; details: time 14.0 day
Mus musculus [9] = assay: Anti-inflammatory activity against MOG35-55-induced experimental autoimmune encephalomyelitis C57BL/6 mouse model assessed as fold change in CCL5 gene expression in brain at 600 mg/kg/day, ig for 14 days starting from 12th day of immunization by RT-qPCR analysis relative to control; format: functional; details: time 14 day
Mus musculus [10] = assay: Anti-inflammatory activity against MOG35-55-induced experimental autoimmune encephalomyelitis C57BL/6 mouse model assessed as reduction in serum […] cytokine level by measuring reduction in IL-17 level at 600 mg/kg/day, ig for 14 days starting from 12th day of immunization by ELISA; format: functional, organism-based; details: time 14.0 day
Mus musculus [11] = assay: Anti-inflammatory activity against MOG35-55-induced experimental autoimmune encephalomyelitis C57BL/6 mouse model assessed as fold change in C1S gene expression in brain at 0.15 mg/kg/day, ig for 14 days starting from 12th day of immunization by RT-qPCR analysis relative to control; format: functional; details: time 14 day
Mus musculus [12] = assay: Anti-inflammatory activity against MOG35-55-induced experimental autoimmune encephalomyelitis C57BL/6 mouse model assessed as fold change in TNF-alpha gene expression in brain at 0.3 mg/kg/day, ig for 14 days starting from 12th day of immunization by RT-qPCR analysis relative to control; format: functional; details: time 14 day
Mus musculus [13] = assay: Anti-inflammatory activity against MOG35-55-induced experimental autoimmune encephalomyelitis C57BL/6 mouse model assessed as fold change in MBP gene expression in brain at 0.15 mg/kg/day, ig for 14 days starting from 12th day of immunization by RT-qPCR analysis relative to control; format: functional; details: time 14 day
Mus musculus [14] = assay: Anti-inflammatory activity against MOG35-55-induced experimental autoimmune encephalomyelitis C57BL/6 mouse model assessed as fold change in BCL2 gene expression in brain at 0.15 mg/kg/day, ig for 14 days starting from 12th day of immunization by RT-qPCR analysis relative to control; format: functional; details: time 14 day
Mus musculus [15] = assay: Anti-inflammatory activity against MOG35-55-induced experimental autoimmune encephalomyelitis C57BL/6 mouse model assessed as fold change in CD4 gene expression in brain at 0.15 mg/kg/day, ig for 14 days starting from 12th day of immunization by RT-qPCR analysis relative to control; format: functional; details: time 14 day
Mus musculus [16] = assay: Anti-inflammatory activity against MOG35-55-induced experimental autoimmune encephalomyelitis C57BL/6 mouse model assessed as methylation of CpG sites of TGFB1 gene promoter in brain at […], ig for 14 days starting from 12th day of immunization by PCR analysis (reference value: 18.3 +/-4%); format: functional; details: time 14 day
Mus musculus [17] = assay: Anti-inflammatory activity against MOG35-55-induced experimental autoimmune encephalomyelitis C57BL/6 mouse model assessed as methylation of CpG sites of […] gene promoter in brain at […], ig for 14 days starting from 12th day of immunization by PCR analysis (reference value: 13.1 +/-8%); format: functional; details: time 14 day
Mus musculus [18] = assay: Anti-inflammatory activity against MOG35-55-induced experimental autoimmune encephalomyelitis C57BL/6 mouse model assessed as fold change in IL6 gene expression in brain at 0.3 mg/kg/day, ig for 14 days starting from 12th day of immunization by RT-qPCR analysis relative to control; format: functional; details: time 14 day
Mus musculus [19] = assay: Anti-inflammatory activity against MOG35-55-induced experimental autoimmune encephalomyelitis C57BL/6 mouse model assessed as fold change in NFKB gene expression in brain at 0.3 mg/kg/day, ig for 14 days starting from 12th day of immunization by RT-qPCR analysis relative to control; format: functional; details: time 14 day
Mus musculus [20] = assay: Anti-inflammatory activity against MOG35-55-induced experimental autoimmune encephalomyelitis C57BL/6 mouse model assessed as reduction in serum monokines level by measuring reduction in IL-1B level at 0.3 mg/kg/day, ig for 14 days starting from 12th day of immunization by ELISA; format: functional, organism-based; details: time 14.0 day
Mus musculus [21] = assay: Anti-inflammatory activity against MOG35-55-induced experimental autoimmune encephalomyelitis C57BL/6 mouse model assessed as reduction in serum chemokines level by measuring reduction in CCL5 level at 0.3 mg/kg/day, ig for 14 days starting from 12th day of immunization by ELISA; format: functional, organism-based; details: time 14.0 day
Mus musculus [22] = assay: as §1, with “cumulative scores” for “paralysis of hind limbs”, “0.3” for “300 to 600”, “immunization and measured from day 12 to 38 post-immunization” for “immunization”; format: functional, organism-based; details: time 1-26 day
Mus musculus [23] = assay: Anti-inflammatory activity against MOG35-55-induced experimental autoimmune encephalomyelitis C57BL/6 mouse model assessed as reduction in serum chemokines level by measuring reduction in CXCL1 level at 0.3 mg/kg/day, ig for 14 days starting from 12th day of immunization by ELISA; format: functional, organism-based; details: time 14.0 day
Mus musculus [24] = assay: Anti-inflammatory activity against MOG35-55-induced experimental autoimmune encephalomyelitis C57BL/6 mouse model assessed as fold change in H2EB1 (HLA-DRB1) gene expression in brain at 0.15 mg/kg/day, ig for 14 days starting from 12th day of immunization by RT-qPCR analysis relative to control; format: functional; details: time 14 day

- Stability [2]: Stable
Compound: CCCCCCCCCCCCCCCCCCCCCCCCC(=O)O[C@H]1CC[C@]2(C)[C@H]3CC=C4[C@@H]5CC(C)(C)CC[C@]5(CO)CC[C@@]4(C)[C@]3(C)CC[C@H]2C1(C)C
- fold change (FC) (Mus musculus [1]): 1.17
- Activity (Mus musculus [3]): Active
- Activity [4]: 5.37 U/ml
- fold change (FC) (Mus musculus [5]): 1.92
- Activity (Mus musculus [6]): Active
- Activity (Mus musculus [7]): Active
- Activity (Mus musculus [8]): Active
- fold change (FC) (Mus musculus [9]): 1.27
- Activity (Mus musculus [10]): Active

Compound: CCCCCCCCc1ccc(CCC(N)(CO)CO)cc1 [FINGOLIMOD]
- fold change (FC) (Mus musculus [11]): 1.91
- fold change (FC) (Mus musculus [12]): -1.46
- fold change (FC) (Mus musculus [13]): -1.1
- fold change (FC) (Mus musculus [14]): 2.24
- fold change (FC) (Mus musculus [15]): 3.06
- Activity (Mus musculus [16]): 35.1%
- Activity (Mus musculus [17]): 19%
- fold change (FC) (Mus musculus [18]): -2.28
- fold change (FC) (Mus musculus [19]): 1.98
- Activity (Mus musculus [20]): Active
- Activity (Mus musculus [21]): Active
- Activity (Mus musculus [22]): Active
- Activity (Mus musculus [23]): Active
- fold change (FC) (Mus musculus [24]): 3.85
